In the NIST ThermoML archive (doi:10.1021/je060271a):

Conditions: 323.15 K, Liquid, Vibrating tube method

CCCCC(=O)OCC(COC(=O)CCCC)(COC(=O)CCCC)COC(=O)CCCC [pentaerythritol tetrapentanoate]
Conditions | mass density [kg/m3]
10795 kPa | 1002.1
10820 kPa | 1002.2
10840 kPa | 1002.2
10860 kPa | 1002.2
10885 kPa | 1002.2
10905 kPa | 1002.2
10926 kPa | 1002.2
10951 kPa | 1002.2
10971 kPa | 1002.3
10992 kPa | 1002.2
11018 kPa | 1002.3
11039 kPa | 1002.2
11060 kPa | 1002.4
11085 kPa | 1002.4
11106 kPa | 1002.3
11128 kPa | 1002.4
11153 kPa | 1002.4
11175 kPa | 1002.3
11197 kPa | 1002.4
11223 kPa | 1002.5
11245 kPa | 1002.5
11267 kPa | 1002.4
11289 kPa | 1002.5
11316 kPa | 1002.5
11339 kPa | 1002.5
11366 kPa | 1002.7
11388 kPa | 1002.6
11411 kPa | 1002.6
11434 kPa | 1002.6
11461 kPa | 1002.6
11484 kPa | 1002.6
11534 kPa | 1002.6
11558 kPa | 1002.6
11581 kPa | 1002.6
11610 kPa | 1002.5
11633 kPa | 1002.7
11657 kPa | 1002.6
11681 kPa | 1002.7
11710 kPa | 1002.7
11735 kPa | 1002.8
11759 kPa | 1002.7
11784 kPa | 1002.8
11813 kPa | 1002.8
11838 kPa | 1002.8
11862 kPa | 1002.9
11892 kPa | 1002.9
11917 kPa | 1003
11942 kPa | 1002.8
11971 kPa | 1003
11996 kPa | 1003
12022 kPa | 1002.9
12053 kPa | 1003
12074 kPa | 1003.1
12105 kPa | 1003
12130 kPa | 1003
12156 kPa | 1003
12187 kPa | 1003
12213 kPa | 1003.1
12244 kPa | 1003.1
12271 kPa | 1003.1
12297 kPa | 1003.2
12324 kPa | 1003.2
12355 kPa | 1003.2
12382 kPa | 1003.4
12415 kPa | 1003.3
12442 kPa | 1003.1
12469 kPa | 1003.2
12502 kPa | 1003.3
12529 kPa | 1003.4
12557 kPa | 1003.4
12585 kPa | 1003.4
12618 kPa | 1003.2
12646 kPa | 1003.4
12674 kPa | 1003.4
12736 kPa | 1003.4
12770 kPa | 1003.5
12800 kPa | 1003.3
12828 kPa | 1003.6
12858 kPa | 1003.5
12892 kPa | 1003.5
12922 kPa | 1003.7
12957 kPa | 1003.7
12986 kPa | 1003.6
13016 kPa | 1003.7
13052 kPa | 1003.6
13082 kPa | 1003.6
13112 kPa | 1003.7
13149 kPa | 1003.7
13179 kPa | 1003.7
13210 kPa | 1003.7
13242 kPa | 1003.9
13279 kPa | 1003.8
13310 kPa | 1003.9
13347 kPa | 1003.9
13378 kPa | 1003.7
13410 kPa | 1003.9
13443 kPa | 1004
13482 kPa | 1003.9
13514 kPa | 1004
13548 kPa | 1004
13581 kPa | 1004
13620 kPa | 1004
13654 kPa | 1004
13687 kPa | 1004.2
13727 kPa | 1004
13760 kPa | 1004.1
13794 kPa | 1004.2
13829 kPa | 1004.2
13870 kPa | 1004.3
13945 kPa | 1004.2
13980 kPa | 1004.2
14049 kPa | 1004.4
14091 kPa | 1004.3
14126 kPa | 1004.4
14162 kPa | 1004.3
14284 kPa | 1004.4
14320 kPa | 1004.4
14358 kPa | 1004.5
14402 kPa | 1004.5
14440 kPa | 1004.6
14477 kPa | 1004.6
14515 kPa | 1004.6
14560 kPa | 1004.7
14600 kPa | 1004.6
14639 kPa | 1004.7
14678 kPa | 1004.6
14717 kPa | 1004.7
14764 kPa | 1004.7
14803 kPa | 1004.7
14843 kPa | 1004.8
14891 kPa | 1004.9
14931 kPa | 1004.9
14972 kPa | 1005
15020 kPa | 1004.9
15062 kPa | 1004.9
15103 kPa | 1005
15147 kPa | 1005
15192 kPa | 1005.1
15243 kPa | 1005.1
15287 kPa | 1005.1
15332 kPa | 1005.1
15386 kPa | 1005.2
15429 kPa | 1005.1
15462 kPa | 1005.2
15497 kPa | 1005.2
15526 kPa | 1005.2
15556 kPa | 1005.3
15585 kPa | 1005.3
15621 kPa | 1005.2
15652 kPa | 1005.4
15685 kPa | 1005.4
15723 kPa | 1005.4
15754 kPa | 1005.5
15779 kPa | 1005.4
15803 kPa | 1005.4
15822 kPa | 1005.5
15842 kPa | 1005.5
15865 kPa | 1005.6
15885 kPa | 1005.5
15904 kPa | 1005.6
